Experimental data reported in ChEMBL document CHEMBL1139702, “4'-Alkoxyl substitution enhancing the anti-mitotic effect of 5-(3',4',5'-substituted)anilino-4-hydroxy-8-nitroquinazolines as a novel class of anti-microtubule agents” (Bioorg Med Chem Lett, 2006).
Active and inactive are the calls of the source. The calls are words filed in the database; no cut-off is given here.

How the values were obtained:
HGC-27 [1] = assay: Antiproliferative activity against HGC27 cells at 50 uM by MTT assay; format: functional, cell-based; conditions: Homo sapiens
A549 [2] = assay: Antiproliferative activity against A549 cells by MTT assay; format: functional, cell-based; conditions: Homo sapiens
HGC-27 [3] = assay: Antiproliferative activity against HGC27 cells by MTT assay; format: functional, cell-based; conditions: Homo sapiens
HGC-27 [4] = assay: Cell cycle arrest in HGC27 cells by accumulation at G2/M phase at 50 uM after 24 hrs; format: functional; conditions: Homo sapiens, HGC-27, 24 h
A549 [5] = assay: Cell cycle arrest in A549 cells by accumulation at G2/M phase at 50 uM after 24 hrs; format: functional, cell-based; conditions: Homo sapiens

Compound: O=[N+]([O-])c1ccc(Nc2ccc(OCc3ccccc3)c(Cl)c2)c2c(O)ncnc12
- Activity (HGC-27 [1]): Active

Compound: O=[N+]([O-])c1ccc(Nc2ccc(OCCCN3CCOCC3)cc2)c2c(O)ncnc12
- Activity (HGC-27 [1]): Active

Compound: COc1ccc(Nc2ccc([N+](=O)[O-])c3ncnc(O)c23)cc1Cl
- IC50 (A549 [2]): 20 µM
- IC50 (HGC-27 [3]): 20 µM

Compound: COC(=O)/C=C\c1ccc(C(=O)OCCOc2ccc(Nc3ccc([N+](=O)[O-])c4ncnc(O)c34)cc2)cc1
- Activity (HGC-27 [1]): Active

Compound: COc1cc(Nc2ccc([N+](=O)[O-])c3ncnc(O)c23)cc(OC)c1OC
- inhibition at 50 µM (HGC-27 [4]): 81%
- Activity (HGC-27 [1]): Active
- Activity (A549 [5]): Active
